Patent publication EP0688331B1, “NEW SULFATED LYSO-GANGLIOSIDE DERIVATIVES” (FIDIA S.p.A., priority 1993, dated 1994)
Read-outs that look alike come from different tables or passages of the source.

Legend:
cerebellar granule cells [1] = conditions: read-out: ED50 (antineurotoxic activity); 2 hrs pretreatment, then 100 µM glutamate 60 minutes; MTT after 24 hr
Description: Primary cultures of cerebellar granule cells have been prepared from 8-day-old Sprague-Dawley rats.
Neurons have been grown in 35 mm dishes for 11-13 days and kept in a humidified environment (95% air and 5% CO2) at 37° C. […] Glial proliferation was prevented by cytosine arabinofuranoside.
Concentrations from 100 µM to 5 µM have been tested.
The cell culture medium was aspirated from the dishes (and properly stored). The dishes were washed (3x2 ml) with Locke's solution, then the solutions (1.5 ml) containing the compound to be tested were added, and incubated for 2 hrs in incubator at 37° C (5% CO2).
The treated cells were washed (3x2 ml) with Locke's solution + 10% fetal calf serum heat inactivated (without glutamic acid), then washed (3x2 ml) in Locke's solution in the absence of Mg^2+. […]
At the end of the incubation the cell viability measured by using the MTT colorimetric test was evaluated (Mosmann T., Rapid colorimetric assay for cellular growth and survival: application to proliferation and cytotoxicity assays. J. Immunol. Meth. 65, 55-63, 1983 and modified according to Skaper S.D. et al.: Death of cultured hippocampal pyramidal neurons induced by pathological activation of N-methyl-Daspartate receptors is reduced by monosialogangliosides. J. Pharm. and Exp. Ther. 259, 1, 452-457, 1991). The data are expressed as ED50 (µM).

[2] = system: Mouse neuroblastoma cells C1300, Neuro-2A clone; test: Neuritogenic activity (% of neurite-bearing cells under the optical microscope); format: cell-based; conditions: for EC50: neuroblastoma cells N2A, % of neurite-bearing cells, read-out: ED50 (µM) neuritogenic effect
Description: Mouse neuroblastoma cells C1300, Neuro-2A clone (obtained from American Cell Type Culture Collection - Bethesda, Md) have been seeded at a density of 10,000 cells/well (24-Falcon) in tissue culture medium containing Dulbecco's modified Eagle medium (DMEM, Gibco), 10% fetal calf serum heat inactivated (FCS, lot 7201 Seromed), penicillin (100 units per ml, Irvine) and L-glutamine (2 mM, Sigma). Cells have been incubated at 37° C for 24 hr, then the medium was withdrawn and substituted with 350 µl of fresh culture medium with and without the compounds to be tested.
The derivatives have been solubilized in chloroform/methanol (2/1) and then dried under a flow of nitrogen.
For the different compounds, consecutive dilutions in tissue culture medium (concentrations from 50 µM to 5 µM) were performed.
Culture dishes incubated with the tested compounds were analyzed under a phase contrast microscope (250x) : 9 optical fields were chosen with prefixed coordinates and photographed. Then, the total number of cells were counted, as well as the number of neurite-bearing cells (length at least double of the cell diameter) in blind on every picture. The percentage of neurite-bearing cells was determined following the counting of at least 100 cells, and the data were expressed by the respective ED50 (µM) (Facci L. et al.: Promotion of neuritogenesis in mouse neuroblastoma cells by exogenous ganglioside GM1. J. Neurochem. 229-305, 1984).

CD4 = biological target: T1, CD4 (Homo sapiens, UniProt P01730); test: Expression of the CD4 molecule in Molt 3 cells (flow cytofluorimetry with anti-CD4 mAb); format: cell-based; conditions: 60 minutes at 37° C
T1 construct: 100% of Molt 3 cells express CD4; host or cells: Molt 3 cells (human acute lymphoblastic leukemia T-cell line)
Excerpt: Molt 3 cells (American Type Culture Collection - Rockville, MD, USA) have been utilized, human tumoral cell lines derived from an acute lymphoblastic leukemia and formed by T lymphocytes expressing CD4 on their surface. Such a cell line was chosen due to the fact that it overlaps, as regards the expression of the CD4 molecule, human T lymphocytes obtained from peripheral blood. 100% of Molt 3 cells express CD4, whereas only part of human T lymphocytes from peripheral blood express CD4 in a proportion varying from subject to subject. The Molt 3 model has therefore the advantage of allowing a better experimental reliability.
Molt 3 cells (1x10^6) have been incubated with different concentrations of Liga 179 (from 1 µg/ml to 500 µg/ml) for 60 minutes at 37° C in buffered saline (PBS), with or without Fetal Calf Serum (FCS). When utilized, FCS was added at a concentration of 5 or 10 part/percentage (vol/vol). Following the incubation and the subsequent washing the percentage of cells expressing CD4 has been measured by flow cytofluorimetry using a monoclonal, fluoresceinated (mAb), specific for CD4 (DAKO T4, Dakopatts, Glostrup, Denmark) and a cytofluorimeter (EPICS V, Coulter Electronics, Hialeah, Florida, USA). In Table 4 are reported the data concerning the percentage of Molt 3 cells that express CD4, following the incubation with the compound under examination at the different concentrations utilized.

cerebellar granule cells [3] = conditions: read-out: ED50 (antineurotoxic activity); co-treatment with 100 µM glutamate, 30 minutes; MTT after 24 hours
Description: Thus, dilutions have been performed at different concentrations in Locke's solution (154 mM NaCl, 5.6 mM KCl, 3.6 mM NaHCO3, 2.3 mM CaCl2, 5.6 mM glucose, 4.6 mM Hepes, pH 7.4). Concentrations from 100 µM to 5 µM have been tested.
The cell culture medium was aspirated from the dishes (and properly stored). The dishes were washed (3x2 ml) with Locke's solution in the absence of Mg^2+. Then, 1.5 ml of Locke's solution (-Mg^2+) with or without 100 µM glutamate and with or without the compound to be tested were added. The incubation period lasted 30 minutes (37° C). Glutamate and the compound to be tested were then removed. The dishes were washed with Locke's solution in the presence of Mg^2+ (2x2 ml) and then incubated in the presence of the initial medium (properly stored) for 24 hours at 37° C in an incubator (5% CO2).
At the end of the incubation cell viability measured by means of the MTT colorimetric test was evaluated (Mosmann T.: Rapid colorimetric assay for cellular growth and survival: application to proliferation and cytotoxicity assays. J Immunol. Meth. 65, 55-63, 1983 and modified according to Skaper S.D. et al.: Death of cultured hippocampal pyramidal neurons induced by pathological activation of N-methyl-D-aspartate receptors is reduced by monosialogangliosides. J. Pharm. and Exp. Ther. 259,1, 452-457, 1991). Data were expressed as ED50 (µM).

N-4-CHLOROBENZENESULFONYL-LYSOGM1 [Liga 123]
EC50 (cerebellar granule cells [1]): 6 µM
% of neurite-bearing cells ([2]; dose of 25 µM): about 48%
EC50 [2]: 12 µM

N-BENZENESULFONYL-LYSO GM1 [Liga 125]
EC50 [2]: 25 µM

O-SULFATED N'SULFO-N'-LYSO-GM1 [Liga 179]
% MOLT-3 cells expressing CD4 on the surface (CD4; 10 µg/ml, FCS 0 %, without compound 96.9): 0%
% MOLT-3 cells expressing CD4 on the surface (CD4; 50 µg/ml, FCS 0 %, without compound 96.9): 0%
% MOLT-3 cells expressing CD4 on the surface (CD4; 100 µg/ml, FCS 0 %, without compound 96.9): 0%
% MOLT-3 cells expressing CD4 on the surface (CD4; 100 µg/ml, FCS 5 %, without compound 98.6): 15.5%
% MOLT-3 cells expressing CD4 on the surface (CD4; 100 µg/ml, FCS 10 %, without compound 96.9): 86.5%
% MOLT-3 cells expressing CD4 on the surface (CD4; 200 µg/ml, FCS 5 %, without compound 98.6): 0%
% MOLT-3 cells expressing CD4 on the surface (CD4; 200 µg/ml, FCS 10 %, without compound 96.9): 14.6%
% MOLT-3 cells expressing CD4 on the surface (CD4; 500 µg/ml, FCS 5 %, without compound 98.6): 0%
% MOLT-3 cells expressing CD4 on the surface (CD4; 500 µg/ml, FCS 10 %, without compound 96.9): 0%
EC50 (cerebellar granule cells [3]): 15 µM
